Article PMC12749166, “Fragment-based drug design of a bacterial kinase inhibitor capable of increasing the antibiotic sensitivity of clinical isolates” (Communications Chemistry, 2025)
≈ marks a conversion by molar mass, not a printed value. Where two headings read alike, the source gives them in different places.

Columns and labels:
[1] = system: P. aeruginosa clinical isolates; assay: MIC by broth micro-dilution; type: cell-based; settings: Pseudomonas aeruginosa, read-out: MIC
S. aureus C0032 = assay: MIC by broth micro-dilution; type: cell-based; settings: Staphylococcus aureus; S. aureus C0032, aph(3')-IIIa ant(6); read-out: MIC
APH(2”)-IVa [2] = biological target: T1, APH(2”)-IVa (Enterococcus casseliflavus, UniProt O68183); assay: biochemical; type: binding; settings: read-out: ΔTm (°C)
T1 sequence (O68183 1-301): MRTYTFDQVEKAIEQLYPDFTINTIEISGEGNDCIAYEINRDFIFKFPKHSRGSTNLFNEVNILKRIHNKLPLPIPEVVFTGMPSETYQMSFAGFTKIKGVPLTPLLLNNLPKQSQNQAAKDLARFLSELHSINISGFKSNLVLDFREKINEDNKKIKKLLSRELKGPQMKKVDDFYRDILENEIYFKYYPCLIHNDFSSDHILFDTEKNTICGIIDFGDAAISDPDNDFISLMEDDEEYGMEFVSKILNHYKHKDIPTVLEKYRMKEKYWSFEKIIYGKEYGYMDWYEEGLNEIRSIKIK
Experimental: Thermal shift assays were performed using an RTqPCR machine Mx3005P (Stratagene) in 96-well plates (Thermo-Fast low Profile, ThermoScientific) by mixing the protein at 5 µM, SYPRO® Orange (Sigma Aldrich) at […], and fragments at 500 µM. Fluorescence was followed with Cy3 and SYAL filters. Denaturation curves were collected using MxPro-Mx3005P v4.10 software and analyzed using the implemented version of wTSA-CRAFT[36].

APH(2”)-IVa [3] = biological target: T1, APH(2”)-IVa; settings: 500 µM; times more inhibition than F136
APH(2”)-IVa [4] = biological target: T1, APH(2”)-IVa; assay: biochemical; settings: Ki (µM), inhibition constant, ATP-competitive; 0-2 mM MgATP, 100 µM kanamycin A, global fitting

Row | SMILES | ΔTm at 500 µM (APH(2”)-IVa [2]) [°C] | Ki (APH(2”)-IVa [4]) [µM] | other results
1 | NCC[C@H](O)C(=O)N[C@@H]1C[C@H](N)[C@@H](O[C@H]2O[C@H](CN)[C@@H](O)[C@H](O)[C@H]2O)[C@H](O)[C@H]1O[C@H]1O[C@H](CO)[C@@H](O)[C@H](N)[C@H]1O [Amikacin] | – | – | MIC ([1]; P. aeruginosa C0214, aph(3')-IIb): 8 to 32 µg/mL (≈ 13.7 to 54.6 µM); MIC ([1]; P. aeruginosa C0307, aph(3')-IIb): 4 to 8 µg/mL (≈ 6.83 to 13.7 µM); MIC (S. aureus C0032): 16 to 32 µg/mL (≈ 27.3 to 54.6 µM)
2 | Nc1ccc(Br)cn1 [Compound 1] | 0.5 | – | –
3 | Clc1cnc2[nH]ccc2c1 [Compound 2, 5-chloro-7-azaindole] | – | 9.63 | Inhibition relative to F136 (APH(2”)-IVa [3]): 5.9 times
4 | O=C(Nc1ccc(Cl)cc1)Nc1ccc(Cl)cn1 [Compound 6] | 0.17 | – | –
5 | O=C(Nc1ccc(Br)cc1)Nc1ccc(Br)cn1 [Compound 7] | -0.26 | – | –
6 | O=C(O)CNC(=O)Nc1ccc(Br)cn1 [Compound 8] | -0.25 | – | –
7 | Clc1ccc(NCCc2ccccc2)nc1 [Compound 11] | 0.48 | – | –
8 | Nc1ncc(Cl)cc1S(=O)(=O)N1CCCC(N)C1 (stereo not drawn) [Compound 16] | 1.7 | – | –
9 | Nc1ncc(Cl)cc1S(=O)(=O)N1CCCNCC1 [Compound 17] | 1.05 | – | –
10 | CC1CCCN(S(=O)(=O)c2cc(Cl)cnc2N)C1CN (stereo not drawn) [Compound 22] | 0.2 | – | –
11 | Nc1ncc(Cl)cc1S(=O)(=O)NC1CCCNC1 (stereo not drawn) [Compound 23] | 0.33 | – | –
12 | Nc1ncc(Cl)cc1S(=O)(=O)N1CCCCC1c1ncc[nH]1 (stereo not drawn) [Compound 24] | 1.99 | – | –
13 | Nc1ncc(Cl)cc1S(=O)(=O)NCCCN1CCC(O)CC1 [Compound 25] | 0.6 | – | –
14 | Cn1nccc1C1CCCN(c2cc(N)ncc2Cl)C1 (stereo not drawn) [Compound 27] | -1.45 | – | –
15 | Nc1cc(N2CCC(C(=O)N3CCCCC3)CC2)c(Cl)cn1 [Compound 28] | -1.78 | – | –
16 | Nc1cc(N2CCOC(c3ccccc3)C2)c(Cl)cn1 (stereo not drawn) [Compound 30] | -1.22 | – | –
17 | O=C(NCCc1ccccc1)c1cc(NC2CC2)ncc1Cl [Compound 36-1] | – | 66.1 | –
18 | O=C(NCCc1ccc(O)cc1)c1cc(NC2CC2)ncc1Cl [Compound 36-2] | – | 11.9 | –
19 | NC(=O)CNC(=O)c1cc(NC2CC2)ncc1Cl [Compound 36-3] | – | 32.3 | –
20 | O=C(NCc1ccccc1)c1cc(NC2CC2)ncc1Cl [Compound 36-4] | – | 79.1 | –
21 | O=C(NCCO)c1cc(NC2CC2)ncc1Cl [Compound 36-5] | – | 25.6 | –
22 | NNC(=O)c1cc(NC2CC2)ncc1Cl [Compound 36-6] | – | 11.4 | –
23 | CN(C)CCNC(=O)c1cc(NC2CC2)ncc1Cl [Compound 36-7] | – | 18.6 | –
24 | NCCNC(=O)c1cc(NC2CC2)ncc1Cl [Compound 36-8] | – | 16.3 | –
